Data published in patent US9668948B2, “Products and methods for reducing malodor from the pudendum” (priority 2009, dated 2017).

Key:
[1] = 1 gram in ... ml of water; 25° C.; cited from earlier work
[2] = tested on: Clostridium sporogenes; assay: Suppression of trimethylamine (TMA) formation from choline by bacterial culture, headspace GC/FID; type: cell-based; conditions: added to the culture solution (internal standard mix)
Method: A viable method was developed for the assay of trimethylamine (TMA). The method utilizes triethylamine and methanol together as internal standards and choline as the substrate for generating TMA from the bacterial species. The bacterial culture for these studies was Clostridium sporogenes, which was grown in house at BioScreen.
Tests were conducted with a headspace gas chromatograph to verify that Clostridium sporogenes bacterial could actively generating trimethylamine from a choline substrate.
Equipment for the testing included a Trace GC Ultra gas chormoatograph and a Varian CP-Volamine column. An FID detector was used with 2.5 mL/min helium flow.
The bacterial species C. sporogenes, a species found in the lower GI tract. was inoculated into 100 mL of Fluid Thioglycolate medium and incubated at 35±2° C. for a minimum of 16 hours. At the end of incubation, the concentration of the bacterial suspension was confirmed by serial dilution in 9 mL PBS up to 10^−7 and anaerobic incubation at 32.5±2.5° C. for a minimum of 48 hours. Counts were recorded from dilution plates with 25 to 250 colonies. The average counts were multiplied by the reciprocal of the dilution factor to furnish the CFU/mL of the bacterial species. […]

Compound | solubility in water: ml of water for 1 gram [1] [mL] | effect on reactivity of the bacterial culture with choline [2]
O=C(O)C(O)c1ccccc1 (centres unmarked) [mandelic acid] | 6.3 | 
benzalkonium chloride |  | stops further reactivity
